Measurements as given in US11260054B2, “Methods of treatment of cancer” (Pano Therapeutics, Inc., priority 2018, dated 2022).
Where two headings read alike, the source gives them in different places.

Columns and labels:
HTC116 Cell Line = test: Colorectal cancer cell survival assay (CellTiter-Glo); assay type: cell-based; details: 72 hrs incubation
Description: HTC116 cells were grown overnight at 37° C., 5% CO2. Cells were then incubated for 72 hrs in humidified incubator at 37° C. and 5% CO2 with 5 m, AA6, metformin, S1QEL 1.1, or cisplatin at concentrations ranging from 100 μM-50 nM. Each condition was done in triplicate, and the structures of the compounds were not known to the experimenters. After the incubation, cells were lysed with CellTiter-Glo® Luminescent Cell Viability Assay reagent (Promega) and luminescence was read using an Envision plate reader.
The IC50s of 5 m, AA6, and cisplatin were similar with 5 m and AA6 having slightly lower IC50s. Metformin and S1Qel 1.1 had dramatically larger IC50s than 5 m, AA6, or cisplatin. Cell viability was plotted with GraphPad Prism version 5 and the IC50 was calculated for each compound. The graphical curves were fitted using a nonlinear regression model with a sigmoidal dose response.

MiaPaCa-2 Cell Line = test: Pancreatic cancer cell survival assay, MiaPaCa-2 (CellTiter-Glo); assay type: cell-based; details: 72 hrs incubation, read-out: Absolute IC50
Description: (§1) PANC-1 and MiaPaCa-2 were grown overnight at 37° C., 5% CO2 and 95% humidity. PANC-1 was grown in DMEM+10% FBS and MIA PaCa-2 was grown in DMEM+10% FBS+2.5% H. Cells from each cell line were then incubated for 72 hrs in humidified incubator at 37° C. and 5% CO2 with 5 m, AA6, metformin, or cisplatin at concentrations ranging from 100 μM-50 nM. Each condition was done in triplicate, and the structures of the compounds were not known to the experimenters. After the incubation, cells were lysed with CellTiter-Glo® Luminescent Cell Viability Assay reagent (Promega) and luminescence was read using an EnVision plate reader (PerkinElmer). Cell viability was plotted with GraphPad Prism version 5 and the IC50 was calculated for each compound with each cell line. The graphical curves were fitted using a nonlinear regression model with a sigmoidal dose response.

PANC-1 Cell Line = test: Pancreatic cancer cell survival assay, PANC-1 (CellTiter-Glo); assay type: cell-based; details: 72 hrs incubation, read-out: Absolute IC50
Description: as §1

[1] = Pharmacokinetic parameters in mice, IV and oral; assay type: in vivo, BALB/c mice; details: for Vd: BALB/c, iv
Description: Fed BALB/c mice were administered either 2 mg/kg of 5 m intravenously via the tail vein or 10 mg/kg of 5 m orally. For both conditions, 5 m was dissolved in 10% DMSO/50% PEG400/40% Water. Blood was sampled at various timepoints after the compound was administered and was analyzed using AB Sciex API 4000 LC/MS/MS in positive ion mode.

HCT116 cells = test: Hypoxic cancer cell survival assay, normoxic vs hypoxic (CellTiter-Glo); assay type: cell-based; details: for IC50: 72 hrs, read-out: Absolute IC50
Description: HCT116 cells were cultured in an atmosphere of 37° C., 5% CO2, 95% humidity, and with either 1% O2 (hypoxic) or 20% O2 (normoxic). No antibiotics were used in the cell culturing. HeLa cells were grown in parallel and samples were taken after 48 h and 72 h to confirm Hypoxia-inducible factor-1α (HIF-1α) expression by western blot.
HCT116 cells were then seeded on 6-well plates and incubated at 37° C., 5% CO2, and 95% humidity overnight. Cells previously cultured under hypoxic conditions were again incubated with 1% O2, and cells previously cultured under normoxic conditions were again incubated with 20% O2.
as §1, with “Hypoxic” for “PANC-1”, “normoxic cells” for “MiaPaCa-2 were grown overnight at 37° C., 5% CO2 and 95% humidity. PANC-1 was grown in DMEM+10% FBS and MIA PaCa-2 was grown in DMEM+10% FBS+2.5% H. Cells from each cell line”, “C., 5% CO2, 95% humidity,” for “C.”, “either 1% O2 (hypoxic) or 20% O2 (normoxic)” for “5% CO2”, “1 mM-50” for “100 μM-50”

[2] = mouse, blood, IV, 2 mg/kg, fed BALB/c mice, mean N = 3
[3] = mouse, blood, oral, 10 mg/kg, fed BALB/c mice, mean N = 3
[4] = HCT116, hypoxic conditions (1% O2)
[5] = Homo sapiens, HCT-116, 72 h, HCT116, hypoxic conditions (1% O2)

Question: Which results are given for `N.N.[Cl][Pt][Cl]` [Cisplatin, reference compound]?
Answer: IC50 (HTC116 Cell Line): 4.3 µM; IC50 (MiaPaCa-2 Cell Line; listed as cisplatin): 14.2 µM; IC50 (MiaPaCa-2 Cell Line): 12.2 µM; IC50 (PANC-1 Cell Line; listed as cisplatin): 12.2 µM; IC50 (PANC-1 Cell Line): 14.2 µM

Question: Which IC50 (HTC116 Cell Line) does the source give for `N/C(=N\C(=O)c1nc(Cl)c(NCc2ccc(I)cc2)nc1N)NCCCCc1ccccc1` [5m, (E)-3-amino-N-(amino((4-phenylbutyl)amino)methylene)-6-chloro-5-((4-iodobenzyl)amino)pyrazine-2-carboxamide] here?
Answer: Its IC50 is 3.2 µM.

Question: What about the IC50 (MiaPaCa-2 Cell Line) of the same molecule?
Answer: Its IC50 is 4.3 µM.

Question: What about the IC50 (MiaPaCa-2 Cell Line; Homo sapiens, MIA PaCa-2, 72 h) of the same molecule?
Answer: Its IC50 is less than 6 µM.

Question: And the “apparent abnormal symptoms or toxicity during the assay” value ([1]; 2 mg/kg intravenously or 10 mg/kg orally, BALB/c mice)?
Answer: The value was “did not result in any apparent abnormal symptoms or toxicity”.

Question: What about the Vd ([1]; mouse, blood, 2 mg/kg, IV, 2 mg/kg, fed BALB/c mice, mean N = 3, read-out: Vss) of the same molecule?
Answer: Its Vd is 9.41 L/kg.

Question: And the Vd ([1]; mouse, blood, 2 mg/kg, IV, 2 mg/kg, fed BALB/c mice, mean N = 3, read-out: Vz)?
Answer: Its Vd is 17.5 L/kg.

Question: What about the “AUC Extr” value ([1]; IV, 2 mg/kg, fed BALB/c mice, mean N = 3) of the same molecule?
Answer: Its value is 2.47%.

Question: And the half-life ([1]; mouse, blood, IV, 2 mg/kg via tail vein, fed BALB/c mice, mean N = 3)?
Answer: Its half-life is 5.3 h.

Question: And the AUC(0-inf) [1, 2]?
Answer: Its AUC(0-inf) is 871 ng·h/mL.

Question: And the AUC(0-t) [1, 2]?
Answer: The AUC(0-t) was 849 ng·h/mL.

Question: And the C0 [1, 2]?
Answer: The C0 was 3870 ng/mL.

Question: What about the MRT inf [1, 2] of the same molecule?
Answer: The MRT inf was 4.1 h.

Question: What about the clearance [1, 2] of the same molecule?
Answer: The clearance was 38.4 mL/min/kg.

Question: And the AUC(0-inf) [1, 3]?
Answer: Its AUC(0-inf) is 41.5 ng·h/mL.

Question: And the AUC(0-t) [1, 3]?
Answer: The AUC(0-t) was 32.8 ng·h/mL.

Question: And the CL/F [1, 3]?
Answer: The CL/F was 4030 mL/min/kg.

Question: And the Cmax [1, 3]?
Answer: Its Cmax is 18.3 ng/mL.

Question: And the half-life [1, 3]?
Answer: Its half-life is 3.62 h.

Question: What about the Vd/F ([1]; mouse, blood, oral, 10 mg/kg, fed BALB/c mice, mean N = 3, read-out: Vz/F) of the same molecule?
Answer: The Vd/F was 1270 L/kg.

Question: And the F ([1]; oral 10 mg/kg vs IV 2 mg/kg, fed BALB/c mice, mean N = 3)?
Answer: The F was 0.773%.

Question: What about the IC50 (PANC-1 Cell Line) of the same molecule?
Answer: The IC50 was 4.7 µM.

Question: And the IC50 (PANC-1 Cell Line; Homo sapiens, PANC-1, 72 h)?
Answer: The IC50 was less than 6 µM.

Question: And the IC50 (HCT116 cells; [4])?
Answer: Its IC50 is 1.7 µM.

Question: What about the IC50 (HCT116 cells; HCT116, normoxic conditions (20% O2)) of the same molecule?
Answer: Its IC50 is 0.7 µM.

Question: With `CN(C)C(=N)N=C(N)N` [Metformin, reference compound] as the molecule, how does the IC50 (HTC116 Cell Line) read?
Answer: The IC50 was greater than 100 µM.

Question: What about the IC50 (MiaPaCa-2 Cell Line; Homo sapiens, MIA PaCa-2, 72 h) of the same molecule?
Answer: Its IC50 is greater than 5000 µM.

Question: And the IC50 (PANC-1 Cell Line; Homo sapiens, PANC-1, 72 h)?
Answer: Its IC50 is greater than 5000 µM.

Question: And the dose response curve (HCT116 cells; HCT116, hypoxic conditions, concentrations up to 1 mM)?
Answer: Its dose response curve is “failed to result in a recognizable dose response curve”.

Question: What about the IC50 (HCT116 cells; [5]) of the same molecule?
Answer: The IC50 was greater than 1000 µM.

Question: And the IC50 (HCT116 cells; Homo sapiens, HCT-116, 72 h, HCT116, normoxic conditions (20% O2))?
Answer: Its IC50 is 71.8 µM.

Question: What does the source list for `CN(CCCCCCc1ccccc1)CCCCNC(=O)c1nc(Cl)c(NCc2ccc(Cl)cc2)nc1N` [AA6, 3-amino-6-chloro-5-((4-chlorobenzyl)amino)-N-(4-(methyl(6-phenylhexyl)amino)butyl)pyrazine-2-carboxamide]?
Answer: IC50 (HTC116 Cell Line): 3.6 µM; IC50 (MiaPaCa-2 Cell Line): 5.1 µM; IC50 (MiaPaCa-2 Cell Line; Homo sapiens, MIA PaCa-2, 72 h): < 6 µM; IC50 (PANC-1 Cell Line): 5.9 µM; IC50 (PANC-1 Cell Line; Homo sapiens, PANC-1, 72 h): < 6 µM; IC50 (HCT116 cells; [4]): 5 µM; IC50 (HCT116 cells; [5]): < 6 µM
